Measurements published in PMC3596387, “Tripolin A, a Novel Small-Molecule Inhibitor of Aurora A Kinase, Reveals New Regulation of HURP's Distribution on Microtubules” (PLoS ONE, 2013).
Where two headings read alike, the source gives them in different places.

Legend:
Assay type in all cases: biochemical
FGFR = biological target: T1, FGFR; test: Z'LYTE kinase selectivity assay
T1 construct: gene FGFR1; selectivity panel
Text: Z'LYTE kinase selectivity assay on FGFR

IGF1R = biological target: T2, IGF1R (Homo sapiens, UniProt P08069); test: Z'LYTE kinase selectivity assay
T2 construct: selectivity panel
T2 sequence (P08069 31-736): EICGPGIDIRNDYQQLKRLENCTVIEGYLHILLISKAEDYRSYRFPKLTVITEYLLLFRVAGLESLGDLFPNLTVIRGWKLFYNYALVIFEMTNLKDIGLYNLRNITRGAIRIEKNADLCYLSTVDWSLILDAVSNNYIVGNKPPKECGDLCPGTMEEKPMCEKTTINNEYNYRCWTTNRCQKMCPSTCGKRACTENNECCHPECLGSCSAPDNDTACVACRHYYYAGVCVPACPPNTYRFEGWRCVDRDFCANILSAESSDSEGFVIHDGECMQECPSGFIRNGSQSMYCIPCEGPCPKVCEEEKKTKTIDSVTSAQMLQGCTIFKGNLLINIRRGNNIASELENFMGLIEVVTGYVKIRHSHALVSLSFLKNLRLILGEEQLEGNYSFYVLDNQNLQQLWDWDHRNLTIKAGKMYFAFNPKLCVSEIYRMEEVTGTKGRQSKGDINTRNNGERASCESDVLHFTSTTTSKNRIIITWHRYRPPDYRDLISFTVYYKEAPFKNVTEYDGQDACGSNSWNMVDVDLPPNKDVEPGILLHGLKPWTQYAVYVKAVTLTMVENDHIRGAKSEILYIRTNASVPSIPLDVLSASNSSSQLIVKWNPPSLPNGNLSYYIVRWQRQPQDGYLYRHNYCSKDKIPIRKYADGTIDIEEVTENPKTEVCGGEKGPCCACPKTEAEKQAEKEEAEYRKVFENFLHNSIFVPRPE
T2 sequence (P08069 741-1367): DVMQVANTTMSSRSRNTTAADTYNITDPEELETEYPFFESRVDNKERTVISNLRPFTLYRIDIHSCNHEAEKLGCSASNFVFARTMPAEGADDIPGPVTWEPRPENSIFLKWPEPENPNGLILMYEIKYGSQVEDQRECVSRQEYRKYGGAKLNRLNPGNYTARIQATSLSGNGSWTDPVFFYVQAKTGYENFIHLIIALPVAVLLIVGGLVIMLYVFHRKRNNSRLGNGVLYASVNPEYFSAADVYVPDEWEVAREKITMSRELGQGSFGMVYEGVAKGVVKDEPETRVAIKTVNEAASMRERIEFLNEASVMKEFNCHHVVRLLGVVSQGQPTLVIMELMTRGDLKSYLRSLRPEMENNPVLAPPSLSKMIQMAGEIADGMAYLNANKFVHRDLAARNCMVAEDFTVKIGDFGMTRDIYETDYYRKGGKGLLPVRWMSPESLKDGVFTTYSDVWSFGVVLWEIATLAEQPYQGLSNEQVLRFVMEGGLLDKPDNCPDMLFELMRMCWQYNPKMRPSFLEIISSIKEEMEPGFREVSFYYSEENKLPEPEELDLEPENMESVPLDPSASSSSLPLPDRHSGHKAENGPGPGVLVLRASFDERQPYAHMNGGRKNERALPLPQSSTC
Text: Z'LYTE kinase selectivity assay on IGF1R

KDR = biological target: T3, KDR (Homo sapiens, UniProt P35968); test: Z'LYTE kinase selectivity assay
T3 construct: selectivity panel
T3 sequence (P35968 20-1356): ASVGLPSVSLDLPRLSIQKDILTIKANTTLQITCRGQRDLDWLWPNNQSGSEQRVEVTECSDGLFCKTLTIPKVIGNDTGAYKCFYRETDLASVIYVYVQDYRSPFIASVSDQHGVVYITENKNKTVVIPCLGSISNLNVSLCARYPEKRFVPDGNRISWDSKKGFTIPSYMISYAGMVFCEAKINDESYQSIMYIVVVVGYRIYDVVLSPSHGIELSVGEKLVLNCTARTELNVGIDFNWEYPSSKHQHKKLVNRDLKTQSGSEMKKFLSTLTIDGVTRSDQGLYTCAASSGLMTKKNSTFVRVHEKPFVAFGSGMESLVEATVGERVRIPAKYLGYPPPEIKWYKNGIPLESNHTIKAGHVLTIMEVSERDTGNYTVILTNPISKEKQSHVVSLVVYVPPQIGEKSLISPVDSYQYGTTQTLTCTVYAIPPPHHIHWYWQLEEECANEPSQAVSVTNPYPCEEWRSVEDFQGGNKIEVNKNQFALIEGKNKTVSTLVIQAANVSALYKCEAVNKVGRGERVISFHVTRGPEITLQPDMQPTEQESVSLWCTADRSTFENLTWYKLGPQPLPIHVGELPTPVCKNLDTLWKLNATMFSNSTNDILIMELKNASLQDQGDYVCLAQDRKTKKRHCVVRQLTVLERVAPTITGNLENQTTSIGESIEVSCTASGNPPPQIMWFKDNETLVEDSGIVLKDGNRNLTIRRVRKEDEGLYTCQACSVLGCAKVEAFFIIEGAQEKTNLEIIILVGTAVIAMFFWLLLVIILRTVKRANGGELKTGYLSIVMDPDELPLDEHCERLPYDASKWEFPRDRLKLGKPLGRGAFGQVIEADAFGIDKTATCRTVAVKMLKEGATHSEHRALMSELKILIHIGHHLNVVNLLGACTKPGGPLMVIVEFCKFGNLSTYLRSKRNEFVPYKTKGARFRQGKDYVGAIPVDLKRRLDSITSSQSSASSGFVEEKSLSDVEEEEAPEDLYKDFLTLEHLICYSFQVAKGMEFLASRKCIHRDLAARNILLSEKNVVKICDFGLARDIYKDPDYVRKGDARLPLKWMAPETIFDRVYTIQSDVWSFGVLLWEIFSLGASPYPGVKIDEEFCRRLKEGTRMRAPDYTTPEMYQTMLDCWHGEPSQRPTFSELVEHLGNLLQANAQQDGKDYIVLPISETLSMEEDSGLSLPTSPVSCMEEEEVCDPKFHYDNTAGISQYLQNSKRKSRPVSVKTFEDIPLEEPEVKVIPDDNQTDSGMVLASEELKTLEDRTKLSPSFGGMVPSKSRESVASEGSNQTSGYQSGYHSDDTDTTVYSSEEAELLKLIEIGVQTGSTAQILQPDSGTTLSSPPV
Text: Z'LYTE kinase selectivity assay on KDR

Aurora A = biological target: T4, Aurora A (Homo sapiens, UniProt O14965); test: in vitro kinase assay (Z'LYTE Ser/Thr […] peptide; Easylite luminescence ATP detection)
T4 construct: gene AURKA; full length in pET21d, 6xHis tag (Aurora A-6xHis), E. coli, Ni-NTA purified
T4 sequence (O14965 1-403): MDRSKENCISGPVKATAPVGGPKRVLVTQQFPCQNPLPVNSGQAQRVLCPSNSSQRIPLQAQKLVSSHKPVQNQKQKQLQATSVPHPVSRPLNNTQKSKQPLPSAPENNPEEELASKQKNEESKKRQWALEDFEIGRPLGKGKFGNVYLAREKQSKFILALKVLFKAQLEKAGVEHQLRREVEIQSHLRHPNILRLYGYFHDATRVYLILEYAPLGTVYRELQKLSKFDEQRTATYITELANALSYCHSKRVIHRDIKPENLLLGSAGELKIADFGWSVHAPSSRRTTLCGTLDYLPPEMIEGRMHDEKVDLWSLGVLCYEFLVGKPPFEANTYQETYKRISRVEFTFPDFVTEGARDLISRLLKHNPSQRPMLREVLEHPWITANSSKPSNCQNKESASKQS

EGFR = biological target: T5, EGFR (Homo sapiens, UniProt P00533); test: Z'LYTE kinase selectivity assay
T5 construct: selectivity panel
T5 sequence (P00533 25-1210): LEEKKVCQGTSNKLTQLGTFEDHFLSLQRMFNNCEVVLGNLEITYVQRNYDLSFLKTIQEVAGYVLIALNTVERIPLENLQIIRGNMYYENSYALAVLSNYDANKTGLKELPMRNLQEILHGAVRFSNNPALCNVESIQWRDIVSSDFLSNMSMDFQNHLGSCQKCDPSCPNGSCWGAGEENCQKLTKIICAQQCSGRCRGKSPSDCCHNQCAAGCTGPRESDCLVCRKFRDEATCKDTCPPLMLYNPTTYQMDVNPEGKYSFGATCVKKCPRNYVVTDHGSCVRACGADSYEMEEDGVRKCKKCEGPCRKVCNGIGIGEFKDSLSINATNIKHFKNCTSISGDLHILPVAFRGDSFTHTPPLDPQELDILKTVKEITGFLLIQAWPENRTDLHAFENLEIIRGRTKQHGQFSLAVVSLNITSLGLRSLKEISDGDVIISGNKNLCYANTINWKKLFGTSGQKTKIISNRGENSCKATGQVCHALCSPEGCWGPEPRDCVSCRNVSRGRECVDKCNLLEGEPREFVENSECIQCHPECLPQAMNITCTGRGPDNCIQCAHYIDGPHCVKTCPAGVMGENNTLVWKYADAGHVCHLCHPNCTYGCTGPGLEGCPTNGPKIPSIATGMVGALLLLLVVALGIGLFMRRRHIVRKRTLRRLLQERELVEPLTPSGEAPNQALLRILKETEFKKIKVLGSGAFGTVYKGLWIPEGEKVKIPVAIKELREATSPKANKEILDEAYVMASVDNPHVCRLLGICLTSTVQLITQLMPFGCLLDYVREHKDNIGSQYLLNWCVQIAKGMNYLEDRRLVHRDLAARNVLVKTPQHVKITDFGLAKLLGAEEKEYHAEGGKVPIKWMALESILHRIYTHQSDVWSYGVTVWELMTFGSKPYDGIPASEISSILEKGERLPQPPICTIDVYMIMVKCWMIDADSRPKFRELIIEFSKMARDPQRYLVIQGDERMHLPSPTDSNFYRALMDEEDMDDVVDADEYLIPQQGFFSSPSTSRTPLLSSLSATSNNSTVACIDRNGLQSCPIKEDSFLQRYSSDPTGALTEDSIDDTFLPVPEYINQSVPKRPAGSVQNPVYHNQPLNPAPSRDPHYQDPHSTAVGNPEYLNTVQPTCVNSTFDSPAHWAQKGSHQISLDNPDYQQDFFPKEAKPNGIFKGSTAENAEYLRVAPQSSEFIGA
Text: Z'LYTE kinase selectivity assay on EGFR

Aurora B = biological target: T6, Aurora B (Homo sapiens, UniProt Q96GD4); test: Z'LYTE kinase selectivity assay
T6 construct: gene AURKB; selectivity panel
T6 sequence (Q96GD4 whole entry): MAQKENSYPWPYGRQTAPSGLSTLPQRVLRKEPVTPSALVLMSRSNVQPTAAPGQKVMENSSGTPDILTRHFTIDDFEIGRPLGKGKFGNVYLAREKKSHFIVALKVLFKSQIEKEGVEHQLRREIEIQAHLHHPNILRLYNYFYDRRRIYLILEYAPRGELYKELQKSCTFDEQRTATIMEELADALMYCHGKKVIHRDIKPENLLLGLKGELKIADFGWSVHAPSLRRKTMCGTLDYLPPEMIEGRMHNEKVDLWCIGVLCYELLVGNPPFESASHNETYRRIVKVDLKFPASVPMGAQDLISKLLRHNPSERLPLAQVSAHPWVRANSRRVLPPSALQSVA
Text: Z'LYTE kinase selectivity assay on Aurora B

Compound | IC50 (FGFR; read-out: Tripolin A) [µM] | IC50 (IGF1R; read-out: Tripolin A) [µM] | IC50 (KDR; read-out: Tripolin A) [µM] | IC50 (Aurora A; read-out: Tripolin A) [µM] | IC50 (EGFR; read-out: Tripolin A) [µM] | IC50 (Aurora B; read-out: Tripolin A) [µM] | IC50 (FGFR; read-out: Tripolin B) [µM] | IC50 (IGF1R; read-out: Tripolin B) [µM] | IC50 (KDR; read-out: Tripolin B) [µM] | IC50 (Aurora A; read-out: Tripolin B) [µM] | IC50 (EGFR; read-out: Tripolin B) [µM] | IC50 (Aurora B; read-out: Tripolin B) [µM]
O=C1Nc2ccccc2C1=Cc1cc(O)ccc1O [Tripolin A, 3-(2,5-Dihydroxy-benzylidene)-1,3-dihydro-indol-1-one] | 33.4 | 14.9 | 17.9 | 1.5 | 11 | 7 | – | – | – | – | – | –
O=C1Nc2ccccc2C1=Cc1cnc[nH]1 [Tripolin B, 3-(3H-Imidazol-4-ylmethylene)-1,3-dihydro-indol-2-one] | – | – | – | – | – | – | 38 | 13.2 | 6.5 | 2.5 | 71.7 | 6
